For 20 compounds, EC50 results are on record in patent publication US20240083886A1, “HETEROCYCLIC GLP-1 AGONISTS” (Gasherbrum Bio, Inc., priority 2020, published 2024).

By EC50 is commonly meant the midpoint of the concentration-response curve.

For the first assay, the target named is GLP-1 Receptor (Homo sapiens, UniProt P43220). The experiment in a line: GLP-1R agonist cAMP stimulation assay. Type of assay: cell-based.
Sequence of GLP-1 Receptor (P43220 24-463, species assumed): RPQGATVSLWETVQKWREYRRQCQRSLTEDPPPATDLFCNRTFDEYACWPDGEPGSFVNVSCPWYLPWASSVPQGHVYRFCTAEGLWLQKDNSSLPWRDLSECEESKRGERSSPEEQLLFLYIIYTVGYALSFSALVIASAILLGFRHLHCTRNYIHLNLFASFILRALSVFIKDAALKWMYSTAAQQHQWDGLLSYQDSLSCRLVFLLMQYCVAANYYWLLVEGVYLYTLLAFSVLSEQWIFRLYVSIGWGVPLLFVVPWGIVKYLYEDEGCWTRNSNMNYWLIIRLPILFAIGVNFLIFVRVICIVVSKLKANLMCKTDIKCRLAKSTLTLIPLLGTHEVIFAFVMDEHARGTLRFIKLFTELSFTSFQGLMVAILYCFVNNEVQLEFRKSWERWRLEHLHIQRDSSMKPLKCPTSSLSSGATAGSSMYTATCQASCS
Conditions: not given
Here is the method: Activation of GLP-1 receptor is known to stimulate cyclic AMP (cAMP) production in cells which indicates primary coupling to the Gαs subunit of the G protein heterotrimeric complex.
To optimize functional activity directed toward Gαs coupling, a HEK293/CRE-Luc cell line developed by HDB stably expressing the GLP-1 Receptor was used. 200× concentration of compound working solutions were prepared (Agilent Technologies Bravo) with ½ log serial dilution in 384-well Echo LDV plate (Labcyte, Cat #LP-0200). 50 nL/well 200× concentration of compound working solutions were moved to 384-well white low volume plate (Greiner, Cat #784075) using Labcyte ECHO550. 1×10^5 cells/mL HEK293/GLP1R/CRE-LUC(HD Biosciences) cell suspensions prepared with assay buffer[DPBS containing 0.5 mM IBMX(Sigma, Cat #15879) and 0.1% BSA (GENVIEW, Cat #FA016-100 g)], 10 uL cell suspensions were added to each well of previous generated assay plate which already contains 50 nl compound at 200×concentration using ThermoFisher Multidrop Combi (1000 cells/well). Seal the plate and incubate at 37° C. with 5% CO2 for 30 min.
After incubation the cAMP assay signal was generated using cAMP dynamic 2 Kit (Cisbio). 5 μL cAMP-d2 working solution was added to each well, followed with 5 μL Anti-cAMP antibody-cryptate working solution added to each well using ThermoFisher Multidrop Combi. Incubate at room temperature for 1 hour protected from light. Read the fluorescence at 665 and 615 nm with Reader PerkinElmer EnVision.
% Activity=100%×(mean RLU of test sample−mean RLU of vehicle control)/(mean RLU of MAX control−mean RLU of vehicle control))
For `CCOCCn1c(CN2CCC(Oc3ccnc(Cc4ccc(Cl)cc4)n3)CC2)nc2cc(-c3nnc(C(F)(F)F)[nH]3)cnc21` [Compound 123, 2-[(4-chlorophenyl)methyl]-4-[(1-{[3-(2-ethoxyethyl)-6-[5-(trifluoromethyl)-4H-1,2,4-triazol-3-yl]-3H-imidazo[4,5-b]pyridin-2-yl]methyl}piperidin-4-yl)oxy]pyrimidine], the response was half-maximal at 5.7 nM (EC50).
`Cc1ccc(-c2ccc3c(c2)nc(CN2CCC(Oc4ccnc(Cc5ccc(Cl)cc5)n4)CC2)n3C[C@@H]2CCO2)nn1` [Compound 124a, 2-{[4-({2-[(4-chlorophenyl)methyl]pyrimidin-4-yl}oxy)piperidin-1-yl]methyl}-5-(6-methylpyridazin-3-yl)-1-{[(2S)-oxetan-2-yl]methyl}-1H-1,3-benzodiazole] had an EC50 of 0.59 nM.
Same read-out and setting: for `Cc1n[nH]c(-c2ccc3c(c2)nc(CN2CCC(Oc4ccnc(Cc5ccc(Cl)cc5)n4)CC2)n3C[C@@H]2CCO2)n1` [Compound 126a, 2-{[4-({2-[(4-chlorophenyl)methyl]pyrimidin-4-yl}oxy)piperidin-1-yl]methyl}-5-(3-methyl-1H-1,2,4-triazol-5-yl)-1-{[(2S)-oxetan-2-yl]methyl}-1H-1,3-benzodiazole] the value was 0.32 nM; for `Cc1ncc(-c2ccc3c(c2)nc(CN2CCC(Oc4ccnc(Cc5ccc(Cl)cc5)n4)CC2)n3C[C@@H]2CCO2)s1` [Compound 129a, 2-{[4-({2-[(4-chlorophenyl)methyl]pyrimidin-4-yl}oxy)piperidin-1-yl]methyl}-5-(2-methyl-1,3-thiazol-5-yl)-1-{[(2S)-oxetan-2-yl]methyl}-1H-1,3-benzodiazole], 7.6 nM.
The compound `Cn1cc(-c2ccc3c(c2)nc(CN2CCC(Oc4ccnc(Cc5ccc(Cl)cc5)n4)CC2)n3C[C@@H]2CCO2)nn1` [Compound 130a, 2-{[4-({2-[(4-chlorophenyl)methyl]pyrimidin-4-yl}oxy)piperidin-1-yl]methyl}-5-(1-methyl-1H-1,2,3-triazol-4-yl)-1-{[(2S)-oxetan-2-yl]methyl}-1H-1,3-benzodiazole] displayed an EC50 of 0.79 nM.
Same read-out and setting: for `Cc1cc(-c2ccc3c(c2)nc(CN2CCC(Oc4ccnc(Cc5ccc(Cl)cc5)n4)CC2)n3C[C@@H]2CCO2)[nH]n1` [Compound 131a, 2-{[4-({2-[(4-chlorophenyl)methyl]pyrimidin-4-yl}oxy)piperidin-1-yl]methyl}-5-(3-methyl-1H-pyrazol-5-yl)-1-{[(2S)-oxetan-2-yl]methyl}-1H-1,3-benzodiazole] the value was 1.8 nM; for `FC(F)(F)c1nnc(-c2ccc3c(c2)nc(CN2CCC(Oc4cccc(Cc5ccc(Cl)cc5)n4)CC2)n3C[C@@H]2CCO2)[nH]1` [Compound 136a, 2-{[4-({6-[(4-chlorophenyl)methyl]pyridin-2-yl}oxy)piperidin-1-yl]methyl}-1-{[(2S)-oxetan-2-yl]methyl}-5-[5-(trifluoromethyl)-4H-1,2,4-triazol-3-yl]-1H-1,3-benzodiazole], 0.22 nM.
The same measure, in the same setting: for `FC(F)(F)c1nnc(-c2cc3nc(CN4CCC(Oc5cccc(Cc6ccc(Cl)cc6)n5)CC4)n(C[C@@H]4CCO4)c3cn2)[nH]1` [Compound 140a, 2-[(4-chlorophenyl)methyl]-6-({1-[(3-{[(2S)-oxetan-2-yl]methyl}-6-[5-(trifluoromethyl)-4H-1,2,4-triazol-3-yl]-3H-imidazo[4,5-c]pyridin-2-yl)methyl]piperidin-4-yl}oxy)pyridine] the value was 1.7 nM; for `FC(F)(F)c1nnc(-c2cnc3c(c2)nc(CN2CCC(Oc4cccc(Cc5ccc(Cl)cc5)n4)CC2)n3C[C@@H]2CCO2)[nH]1` [Compound 143a, 2-[(4-chlorophenyl)methyl]-6-({1-[(3-{[(2S)-oxetan-2-yl]methyl}-6-[5-(trifluoromethyl)-4H-1,2,4-triazol-3-yl]-3H-imidazo[4,5-b]pyridin-2-yl)methyl]piperidin-4-yl}oxy)pyridine], 0.22 nM.

The same assay, now with this note: HEK293/GLP1R/CRE-LUC cells, cAMP dynamic 2 Kit (Cisbio), 30 min incubation at 37° C.; read-out: EC50.
Turning to `Fc1cc2c(cc1-c1nnc(C(F)(F)F)[nH]1)nc(CN1CCC(Oc3ccnc(Cc4ccc(Cl)cc4)n3)CC1)n2C[C@@H]1CCO1` [Compound 122a, 2-{[4-({2-[(4-chlorophenyl)methyl]pyrimidin-4-yl}oxy)piperidin-1-yl]methyl}-6-fluoro-1-{[(2S)-oxetan-2-yl]methyl}-5-[5-(trifluoromethyl)-4H-1,2,4-triazol-3-yl]-1H-1,3-benzodiazole], the EC50 amounted to 0.54 nM.
Still for that read-out and setting: for `O=C(O)c1ccc2c(c1)nc(CN1CCC(Oc3ccnc(Cc4ccc(Cl)cc4)n3)CC1)n2C[C@@H]1CCO1` [Compound 134a, 2-{[4-({2-[(4-chlorophenyl)methyl]pyrimidin-4-yl}oxy)piperidin-1-yl]methyl}-1-{[(2S)-oxetan-2-yl]methyl}-1H-1,3-benzodiazole-5-carboxylic acid] the value was 0.053 nM; for `O=C(O)c1ccc2c(c1)nc(CN1CCC(Oc3ccnc(Cc4ccc(Cl)cc4F)n3)CC1)n2C[C@@H]1CCO1` [Compound 135a, 2-{[4-({2-[(4-chloro-2-fluorophenyl)methyl]pyrimidin-4-yl}oxy)piperidin-1-yl]methyl}-1-{[(2S)-oxetan-2-yl]methyl}-1H-1,3-benzodiazole-5-carboxylic acid], 0.19 nM; for `Fc1cc(Cl)ccc1Cc1cccc(OC2CCN(Cc3nc4cc(-c5nnc(C(F)(F)F)[nH]5)ccc4n3C[C@@H]3CCO3)CC2)n1` [Compound 137a, 2-{[4-({6-[(4-chloro-2-fluorophenyl)methyl]pyridin-2-yl}oxy)piperidin-1-yl]methyl}-1-{[(2S)-oxetan-2-yl]methyl}-5-[5-(trifluoromethyl)-4H-1,2,4-triazol-3-yl]-1H-1,3-benzodiazole], 0.14 nM.
Still for that read-out and setting: for `Fc1cc(Cl)ccc1Cc1nccc(OC2CCN(Cc3nc4cc(-c5nnc(C(F)(F)F)[nH]5)ncc4n3C[C@@H]3CCO3)CC2)n1` [Compound 138a, 2-[(4-chloro-2-fluorophenyl)methyl]-4-({1-[(3-{[(2S)-oxetan-2-yl]methyl}-6-[5-(trifluoromethyl)-4H-1,2,4-triazol-3-yl]-3H-imidazo[4,5-c]pyridin-2-yl)methyl]piperidin-4-yl}oxy)pyrimidine] the value was 0.03 nM; for `Fc1cc(Cl)ccc1Cc1cccc(OC2CCN(Cc3nc4cc(-c5nnc(C(F)(F)F)[nH]5)cnc4n3C[C@@H]3CCO3)CC2)n1` [Compound 141a, 2-[(4-chloro-2-fluorophenyl)methyl]-6-({1-[(3-{[(2S)-oxetan-2-yl]methyl}-6-[5-(trifluoromethyl)-4H-1,2,4-triazol-3-yl]-3H-imidazo[4,5-b]pyridin-2-yl)methyl]piperidin-4-yl}oxy)pyridine], 0.13 nM.
For the compound `Fc1cc(Cl)ccc1Cc1nccc(OC2CCN(Cc3nc4cc(-c5nnc(C(F)(F)F)[nH]5)cnc4n3C[C@@H]3CCO3)CC2)n1` [Compound 142a, 2-[(4-chloro-2-fluorophenyl)methyl]-4-({1-[(3-{[(2S)-oxetan-2-yl]methyl}-6-[5-(trifluoromethyl)-4H-1,2,4-triazol-3-yl]-3H-imidazo[4,5-b]pyridin-2-yl)methyl]piperidin-4-yl}oxy)pyrimidine], the EC50 amounted to 0.048 nM.
In the case of `O=c1[nH]c(-c2cnc3c(c2)nc(CN2CCC(Oc4ccnc(Cc5ccc(Cl)cc5)n4)CC2)n3C[C@@H]2CCO2)no1` [Compound 144a, 3-(2-{[4-({2-[(4-chlorophenyl)methyl]pyrimidin-4-yl}oxy)piperidin-1-yl]methyl}-3-{[(2S)-oxetan-2-yl]methyl}-3H-imidazo[4,5-b]pyridin-6-yl)-4,5-dihydro-1,2,4-oxadiazol-5-one], the EC50 is 1.8 nM.
With `O=c1[nH]c(-c2cc3nc(CN4CCC(Oc5ccnc(Cc6ccc(Cl)cc6)n5)CC4)n(C[C@@H]4CCO4)c3cn2)no1` [Compound 145a, 3-(2-{[4-({2-[(4-chlorophenyl)methyl]pyrimidin-4-yl}oxy)piperidin-1-yl]methyl}-3-{[(2S)-oxetan-2-yl]methyl}-3H-imidazo[4,5-c]pyridin-6-yl)-4,5-dihydro-1,2,4-oxadiazol-5-one], the EC50 was found to be 0.082 nM.
Same read-out and setting: to `Fc1cnc(Cc2ccc(Cl)cc2)nc1OC1CCN(Cc2nc3cc(-c4nnc(C(F)(F)F)[nH]4)ccc3n2C[C@H]2CCOC2)CC1` [Compound 147a, 2-{[4-({2-[(4-chlorophenyl)methyl]-5-fluoropyrimidin-4-yl}oxy)piperidin-1-yl]methyl}-1-{[(3R)-oxolan-3-yl]methyl}-5-[5-(trifluoromethyl)-4H-1,2,4-triazol-3-yl]-1H-1,3-benzodiazole] belongs 11 nM.
Regarding `FC(F)(F)c1nnc(-c2ccc3c(c2)nc(CN2CCC(Oc4ccnc(Cc5ccc(Cl)cc5)n4)CC2)n3C[C@H]2CCOC2)[nH]1` [Compound 148a, 2-{[4-({2-[(4-chlorophenyl)methyl]pyrimidin-4-yl}oxy)piperidin-1-yl]methyl}-1-{[(3R)-oxolan-3-yl]methyl}-5-[5-(trifluoromethyl)-4H-1,2,4-triazol-3-yl]-1H-1,3-benzodiazole], the EC50 turned out to be 1.4 nM.
